According to patent publication US12344610B2, “APOL1 inhibitors and methods of use” (Maze Therapeutics, Inc., priority 2022, dated 2025):

Biological target: T1, APOL1 G2 (Homo sapiens, UniProt O14791, DEL388-389)
T1 construct: expressed in transfected cells; host or cells: HEK293 T-REx clonal line stably expressing GCaMP6f (HEK T-REx/GCaMP6f/APOL1 G2 K6.3), doxycycline induced
T1 sequence (O14791 with tags, fused parts or gaps DEL388-389): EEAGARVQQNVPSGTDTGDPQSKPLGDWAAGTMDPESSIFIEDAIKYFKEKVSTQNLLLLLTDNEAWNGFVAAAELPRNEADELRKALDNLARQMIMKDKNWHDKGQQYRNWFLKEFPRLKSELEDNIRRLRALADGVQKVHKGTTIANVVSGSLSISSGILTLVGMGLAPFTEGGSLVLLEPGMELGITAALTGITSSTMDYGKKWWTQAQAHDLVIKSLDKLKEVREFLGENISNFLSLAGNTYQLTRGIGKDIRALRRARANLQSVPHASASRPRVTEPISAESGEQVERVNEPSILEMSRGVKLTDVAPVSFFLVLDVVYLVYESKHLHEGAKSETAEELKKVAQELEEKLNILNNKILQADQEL
Test: APOL1-mediated calcium transport (calcium influx) assay, HEK T-REx/GCaMP6f/APOL1 G2 K6.3 cells, FLIPR TETRA
Type: cell-based
Conditions: prevention of calcium influx; geometric mean of at least 2 assay runs; † = average of a technical replicate from a single assay run
Method in brief: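 A HEK293 T-REx clone stably expressing GCaMP6f had APOL1 G2 induced with doxycycline (20 ng/mL solution added) for 6 h. Cells were then washed into Ca2+-free Tyrode's buffer (pH 7.4) and preincubated with compounds (duplicate 8-point) for 10 min at room temperature. Ca2+ injection to 5 mM final produced FLIPR GCaMP fluorescence, giving AC50 for influx inhibition (geometric mean, ≥2 runs).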

Row | SMILES | AC50 [µM]
1 | C[C@]1(O)C[C@@H](n2cc3cc(OCCN4CCC5(CC4)C(=O)Nc4ccc(Cl)cc45)cc(C(F)(F)F)c3n2)C1 [Compound 427, 5-chloro-1′-[2-({2-[(cis)-3-hydroxy-3-methylcyclobutyl]-7-(trifluoromethyl)-2H-indazol-5-yl}oxy)ethyl]-1,2-dihydrospiro[indole-3,4′-piperidin]-2-one] | 0.708
2 | C[C@]1(O)C[C@@H](n2cc3cc(OCCN4CCC5(CC4)C(=O)Nc4ccc(C#N)cc45)cc(C(F)(F)F)c3n2)C1 [Compound 428, 2-oxo-1′-[2-({2-[(cis)-3-hydroxy-3-methylcyclobutyl]-7-(trifluoromethyl)-2H-indazol-5-yl}oxy)ethyl]-1,2-dihydrospiro[indole-3,4′-piperidine]-5-carbonitrile] | 1.2
3 | C[C@]1(O)C[C@@H](n2cnc3cc(OCCN4CCC5(CC4)C(=O)Nc4ccc(C#N)cc45)cc(C(F)(F)F)c32)C1 [Compound 433, 1′-(2-((1-((cis)-3-hydroxy-3-methylcyclobutyl)-7-(trifluoromethyl)-1H-benzo[d]imidazol-5-yl)oxy)ethyl)-2-oxospiro[indoline-3,4′-piperidine]-5-carbonitrile] | 1.3
4 | C[C@]1(O)C[C@@H](n2nnc3cc(OCCN4CCC5(CC4)C(=O)Nc4ccc(Cl)cc45)cc(C(F)(F)F)c32)C1 [Compound 434, 5-chloro-1′-[2-({1-[(cis)-3-hydroxy-3-methylcyclobutyl]-7-(trifluoromethyl)-1H-1,2,3-benzotriazol-5-yl}oxy)ethyl]-1,2-dihydrospiro[indole-3,4′-piperidin]-2-one] | 1.27
5 | C[C@]1(O)C[C@@H](n2nnc3cc(OCCN4CCC5(CC4)C(=O)Nc4ccc(C#N)cc45)cc(C(F)(F)F)c32)C1 [Compound 435, 2-oxo-1′-[2-({1-[(cis)-3-hydroxy-3-methylcyclobutyl]-7-(trifluoromethyl)-1H-1,2,3-benzotriazol-5-yl}oxy)ethyl]-1,2-dihydrospiro[indole-3,4′-piperidine]-5-carbonitrile] | 1.17
6 | C[C@]1(O)C[C@@H](n2cnc3cc(OCCN4CCC5(CC4)C(=O)Nc4ccc(Cl)cc45)cc(C#N)c32)C1 [Compound 439, 5-(2-{5-chloro-2-oxo-1,2-dihydrospiro[indole-3,4′-piperidin]-1′-yl}ethoxy)-1-[(cis)-3-hydroxy-3-methylcyclobutyl]-1H-1,3-benzodiazole-7-carbonitrile] | 0.603
7 | C[C@]1(O)C[C@@H](n2nnc3cc(OCCN4CCC5(CC4)C(=O)Nc4ccc(Cl)cc45)cnc32)C1 [Compound 440, 5-chloro-1′-[2-({3-[(cis)-3-hydroxy-3-methylcyclobutyl]-3H-[1,2,3]triazolo[4,5-b]pyridin-6-yl}oxy)ethyl]-1,2-dihydrospiro[indole-3,4′-piperidin]-2-one] | 0.552
8 | Cc1nc2cc(OCCN3CCC4(CC3)C(=O)Nc3ccc(Cl)cc34)cc(C(F)(F)F)c2n1[C@H]1C[C@@](C)(O)C1 [Compound 442, 5-chloro-1′-[2-({2-methyl-1-[(cis)-3-hydroxy-3-methylcyclobutyl]-7-(trifluoromethyl)-1H-1,3-benzodiazol-5-yl}oxy)ethyl]-1,2-dihydrospiro[indole-3,4′-piperidin]-2-one] | 2.14
9 | Cc1nc2cc(OCCN3CCC4(CC3)C(=O)Nc3ccc(C#N)cc34)cc(C(F)(F)F)c2n1[C@H]1C[C@@](C)(O)C1 [Compound 443, 1′-[2-({2-methyl-1-[(cis)-3-hydroxy-3-methylcyclobutyl]-7-(trifluoromethyl)-1H-1,3-benzodiazol-5-yl}oxy)ethyl]-2-oxo-1,2-dihydrospiro[indole-3,4′-piperidine]-5-carbonitrile] | 2.67
10 | C[C@]1(O)C[C@@H](n2cnc3cc(OCCN4CCC5(CC4)C(=O)Nc4ccc(C(F)F)cc45)cc(C(F)(F)F)c32)C1 [Compound 450, 5-(difluoromethyl)-1′-[2-({1-[(cis)-3-hydroxy-3-methylcyclobutyl]-7-(trifluoromethyl)-1H-1,3-benzodiazol-5-yl}oxy)ethyl]-1,2-dihydrospiro[indole-3,4′-piperidin]-2-one] | 2.27
11 | C[C@]1(O)C[C@@H](n2cnc3cc(OCCN4CCC5(CC4)C(=O)Nc4c(I)cc(Cl)cc45)cc(C(F)(F)F)c32)C1 [Compound 453, 5-chloro-7-iodo-1′-[2-({1-[(cis)-3-hydroxy-3-methylcyclobutyl]-7-(trifluoromethyl)-1H-1,3-benzodiazol-5-yl}oxy)ethyl]-1,2-dihydrospiro[indole-3,4′-piperidin]-2-one] | 0.935
12 | C[C@]1(O)C[C@@H](n2cnc3cc(OCCN4CCC5(CC4)C(=O)Nc4ccc(Cl)cc45)cc(F)c32)C1 [Compound 454, 5-chloro-1′-(2-((7-fluoro-1-((cis)-3-hydroxy-3-methylcyclobutyl)-1H-benzo[d]imidazol-5-yl)oxy)ethyl)spiro[indoline-3,4′-piperidin]-2-one] | 0.473
13 | CC1(O)CC2(CN(c3ncc(OCCN4CCC5(CC4)C(=O)Nc4ccc(Cl)cc45)cn3)C2)C1 [Compound 459, 5-chloro-1′-{2-[(2-{6-hydroxy-6-methyl-2-azaspiro[3.3]heptan-2-yl}pyrimidin-5-yl)oxy]ethyl}-1,2-dihydrospiro[indole-3,4′-piperidin]-2-one] | 0.37
14 | C[C@]1(O)C[C@@H](N2C(=O)C3(CC3)c3cc(OCCN4CCC5(CC4)C(=O)Nc4ccc(Cl)cc45)cnc32)C1 [Compound 460, 5-chloro-1′-(2-{2′-oxo-1′-[(cis)-3-hydroxy-3-methylcyclobutyl]-1′,2′-dihydrospiro[cyclopropane-1,3′-pyrrolo[2,3-b]pyridin]-5′-yloxy}ethyl)-1,2-dihydrospiro[indole-3,4′-piperidin]-2-one] | 0.317
15 | [2H]C([2H])([2H])[C@]1(O)C[C@@H](N2C(=O)CCc3cc(OCCN4CCC5(CC4)C(=O)Nc4ccc(Cl)cc45)cnc32)C1 [Compound 461, 5-chloro-1′-[2-({7-oxo-8-[(cis)-3-hydroxy-3-(^2H3)methylcyclobutyl]-5,6,7,8-tetrahydro-1,8-naphthyridin-3-yl}oxy)ethyl]-1,2-dihydrospiro[indole-3,4′-piperidin]-2-one] | 0.676
16 | C[C@]1(O)C[C@@H](n2ncc3cc(OCCN4CCC5(CC4)C(=O)Nc4ccc(Cl)cc45)cc(C(F)(F)F)c32)C1 [Compound 464, 5-chloro-1′-[2-({1-[(cis)-3-hydroxy-3-methylcyclobutyl]-7-(trifluoromethyl)-1H-indazol-5-yl}oxy)ethyl]-1,2-dihydrospiro[indole-3,4′-piperidin]-2-one] | 1.19
17 | C[C@]1(O)C[C@@H](n2ncc3cc(OCCN4CCC5(CC4)C(=O)Nc4ccc(C#N)cc45)cc(C(F)(F)F)c32)C1 [Compound 465, 2-oxo-1′-[2-({1-[(cis)-3-hydroxy-3-methylcyclobutyl]-7-(trifluoromethyl)-1H-indazol-5-yl}oxy)ethyl]-1,2-dihydrospiro[indole-3,4′-piperidine]-5-carbonitrile] | 0.748
18 | C[C@]1(O)C[C@@H](n2c(=O)[nH]c3cc(OCCN4CCC5(CC4)C(=O)Nc4ccc(Cl)cc45)cc(C(F)(F)F)c32)C1 [Compound 468, 5-chloro-1′-[2-({2-oxo-1-[(cis)-3-hydroxy-3-methylcyclobutyl]-7-(trifluoromethyl)-2,3-dihydro-1H-1,3-benzodiazol-5-yl}oxy)ethyl]-1,2-dihydrospiro[indole-3,4′-piperidin]-2-one] | 0.867
19 | C[C@]1(O)C[C@@H](n2c(=O)[nH]c3cc(OCCN4CCC5(CC4)C(=O)Nc4ccc(C#N)cc45)cc(C(F)(F)F)c32)C1 [Compound 470, 2-oxo-1′-[2-({2-oxo-1-[(cis)-3-hydroxy-3-methylcyclobutyl]-7-(trifluoromethyl)-2,3-dihydro-1H-1,3-benzodiazol-5-yl}oxy)ethyl]-1,2-dihydrospiro[indole-3,4′-piperidine]-5-carbonitrile] | 1.11
